Source: article PMC7822874, “Chemoprotective antimalarials identified through quantitative high-throughput screening of Plasmodium blood and liver stage parasites” (Scientific Reports, 2021)
Like-named read-outs stand apart in the source and are kept apart here.

What was measured:
[1] = test system: P. berghei-ANKA-GFP-LucCON liver stage parasites in HepG2-A16-CD81EGFP cells; test: P. berghei liver stage Pb-Luc assay, Method 1 (UCSD, 1536-well); assay type: cell-based, Plasmodium berghei; settings: for activity at 1 µM / activity at 3 µM: 48 h, average of 2 wells on a 1536 well plate; for Max Resp (signal direction of the dose response): Decrease = decreasing P. berghei viability with dose, Increase = increasing signal, Inactive = no dose response
[2] = test system: HepG2-A16-CD81EGFP cells; settings: average of 2 wells; for HepG2 1uM growth rep1 / HepG2 1uM growth rep2: HepG2, 1 µM compound treatment (10 mM stocks); for HepG2 1uM growth rep1 / HepG2 3uM growth rep1: replicate 1, normalized; for HepG2 1uM growth rep2 / HepG2 3uM growth rep2: replicate 2, normalized; for HepG2 3uM growth rep1 / HepG2 3uM growth rep2: HepG2, 3 µM compound treatment (10 mM stocks)
[3] = test system: Plasmodium falciparum Dd2 asexual blood stage parasites; test: microbe, parasite or virus in culture; design: species or system Plasmodium falciparum Dd2 in human erythrocytes; single determination (one 11-point concentration-response curve); settings: Plasmodium falciparum, DD2, Erythrocyte, 72 h; read-out: AC50
[4] = in vitro; settings: human, HepG2 cells; n = 1
[5] = in vitro; settings: human, HepG2-A16-CD81EGFP cells, uninfected
[6] = Plasmodium berghei, P. berghei liver stage, 1 µM compound treatment (10 mM stocks), replicate 1, normalized, read-out: PbLuc 1uM growth rep1
[7] = Plasmodium berghei, P. berghei liver stage, 1 µM compound treatment (10 mM stocks), replicate 2, normalized, read-out: PbLuc 1uM growth rep2
[8] = Plasmodium berghei, P. berghei liver stage, 3 µM compound treatment (10 mM stocks), replicate 1, normalized, read-out: PbLuc 3uM growth rep1
[9] = Plasmodium berghei, P. berghei liver stage, 3 µM compound treatment (10 mM stocks), replicate 2, normalized, read-out: PbLuc 3uM growth rep2
[10] = Plasmodium berghei, 1 uM (compounds provided at 10 mM), column 11, read-out: Pb-Luc (P. berghei liver stage), % of control, lower concentration, first repeat
[11] = Plasmodium berghei, 1 uM (compounds provided at 10 mM), column 12, read-out: Pb-Luc (P. berghei liver stage), % of control, lower concentration, second repeat
[12] = Plasmodium berghei, 3 uM (compounds provided at 10 mM), column 8, read-out: Pb-Luc (P. berghei liver stage), % of control, higher concentration, first repeat
[13] = Plasmodium berghei, 3 uM (compounds provided at 10 mM), column 9, read-out: Pb-Luc (P. berghei liver stage), % of control, higher concentration, second repeat
[14] = Plasmodium berghei, Method 1, Hill fit, 50% of maximum activity response, read-out: AC50
[15] = Plasmodium berghei, Method 1, log10 of molar AC50 from Hill fit, read-out: Log AC50 (converted)

In the case of O=C(Nc1ncccc1O)c1ccc(NS(=O)(=O)c2ccc3[nH]c(=O)[nH]c3c2)cc1 [MLS001138628-01], the activity at 1 µM [1, 6] is reported as 61%, the activity at 1 µM [1, 7] is reported as 57% and the activity at 3 µM [1, 8] is reported as 21%. For the same compound, the activity at 3 µM [1, 9] was 25%, the “HepG2 1uM growth rep1” value [2] was 110% and the “HepG2 1uM growth rep2” value [2] was 100%. For the same compound, the “HepG2 3uM growth rep1” value [2] was 89%, the “HepG2 3uM growth rep2” value [2] was 93% and the AC50 [3] was 0.422 µM. It also gave a CC50 at 48 h [4] of 21.7 µM.

For O=C(NCCNc1ccnc2cc(Cl)ccc12)c1ccccc1F [MLS001163130-01], the viability at 48 h, 1 µM [5] was 106%, the viability at 48 h, 3 µM [5] was 86% and the AC50 [3] was 1.68 µM. For the same compound, the CC50 at 48 h [4] was 27.3 µM.

c1ccc(CNc2nc(-c3ccccn3)nc3ccccc23)cc1 [MLS001165148-01] showed a viability at 48 h, 1 µM [5] of 93%, a viability at 48 h, 3 µM [5] of 87% and an AC50 [3] of 5.31 µM. For the same compound, the CC50 at 48 h [4] was 10.9 µM.

Compound CCCN(CCC)c1nc(-c2ccccn2)nc2ccccc12 [MLS001165172-01] has an activity at 1 µM [1, 10] of 92%, an activity at 1 µM [1, 11] of 102% and an activity at 3 µM [1, 12] of 8%. For the same compound, the activity at 3 µM [1, 13] was 7%, the viability at 48 h, 1 µM [5] was 112% and the viability at 48 h, 3 µM [5] was 90%. For the same compound, the AC50 [3] was 5.31 µM and the CC50 at 48 h [4] was 9.68 µM.

In the case of O=C1c2ccccc2C(=O)c2[nH]c(=O)[nH]c21 [MLS001173438-01], the “Max Resp (signal direction of the dose response)” value ([1]; Method 1) is reported as “Decrease”, the AC50 [1, 14] is reported as 1.58 µM and the AC50 [1, 15] is reported as 1.58 µM. It also gave a viability at 66 h [5] of 95.7%, an AC50 [3] of 5.96 µM and a CC50 at 48 h [4] of 10.9 µM.

In the case of O=C1c2cc(F)ccc2-n2c1nc1ccccc1c2=O [MLS001216278-01], the “Max Resp (signal direction of the dose response)” value ([1]; Method 1) is reported as “Decrease”, the AC50 ([1]; Method 1, Hill fit, 50% of maximum activity response, read-out: AC50) is reported as 0.004 µM and the “Log AC50 (M)” value ([1]; Method 1, log10 of molar AC50 from Hill fit) is reported as -8.400 M. It also gave an AC50 [1, 14] of 0.00355 µM, an AC50 [1, 15] of 0.00355 µM and a viability at 66 h [5] of 95.7%. For the same compound, the AC50 [3] was 0.119 µM and the CC50 at 48 h [4] was 12.2 µM.

With CN(C)CCCn1cnc2c(c1=N)C(c1ccccc1)c1ccc3ccccc3c1O2 (stereo not drawn) [MLS001216375-01] the viability at 48 h, 1 µM [5] was 111%, the viability at 48 h, 3 µM [5] was 110% and the AC50 [3] was 3.76 µM. It also gave a CC50 at 48 h [4] of 30.6 µM.

For O=C(N/N=C(/c1ccccc1)c1cccnc1)c1cccc(F)c1 [MLS001224623-01], the activity at 1 µM [1, 6] was 10%, the activity at 1 µM [1, 7] was 9% and the activity at 3 µM [1, 8] was 6.61%. The activity at 3 µM [1, 9] was 8%, the “HepG2 1uM growth rep1” value [2] was 68% and the “HepG2 1uM growth rep2” value [2] was 59%. For the same compound, the “HepG2 3uM growth rep1” value [2] was 30%, the “HepG2 3uM growth rep2” value [2] was 34% and the AC50 [3] was 4.22 µM. It also gave a CC50 at 48 h [4] of 12.2 µM.

Compound CCN1CCN(c2ccc(Nc3ccnc4ccccc34)cc2)CC1 [MLS001360577-01] has a viability at 48 h, 1 µM [5] of 95%, a viability at 48 h, 3 µM [5] of 91% and an AC50 [3] of 1.06 µM. The CC50 at 48 h [4] was 17.2 µM.

In the case of O=C(Nc1nc(-c2ccccn2)cs1)c1cccc(S(=O)(=O)N2CCOCC2)c1 [MLS002161290-01], the activity at 1 µM [1, 10] is reported as 17%, the activity at 1 µM [1, 11] is reported as 16% and the activity at 3 µM [1, 12] is reported as 7%. The activity at 3 µM [1, 13] was 7%, the viability at 48 h, 1 µM [5] was 98% and the viability at 48 h, 3 µM [5] was 60%. The AC50 [3] was 5.96 µM and the CC50 at 48 h [4] was 9.68 µM.

In the case of C/C(=N\NC(=O)c1ccccc1OCc1ccc(F)cc1)c1ccccn1 [MLS002162875-01], the viability at 48 h, 1 µM [5] is reported as 105%, the viability at 48 h, 3 µM [5] is reported as 79% and the AC50 [3] is reported as 4.73 µM. It also gave a CC50 at 48 h [4] of 17.2 µM.

With O=S(=O)(Nc1cc2nc3ccccc3nc2n1Cc1ccccc1)c1ccc(Cl)cc1 [MLS002583111-01] the viability at 66 h [5] was 103%, the AC50 [3] was 1.19 µM and the CC50 at 48 h [4] was 19.3 µM.

Work on COc1ccc(Nc2cc(O)c3ncccc3c2)cc1 [NCGC00183797-01] yielded a viability at 48 h, 1 µM [5] of 89%, a viability at 48 h, 3 µM [5] of 73% and an AC50 [3] of 0.75 µM. It also gave a CC50 at 48 h [4] of 19.3 µM.

Compound Oc1cc(Nc2ccc(N3CCCCC3)cc2)cc2cccnc12 [NCGC00183804-01] has a viability at 48 h, 1 µM [5] of 105%, a viability at 48 h, 3 µM [5] of 94% and an AC50 [3] of 0.841 µM. It also gave a CC50 at 48 h [4] of 17.2 µM.
